Patent US20190380941A1, “COMPOSITION COMPRISING A TRUFFLE EXTRACT AND NEOHESPERIDIN DIHYDROCHALCONE” (L'OREAL, priority 2016, published 2019)

Tested on: filaggrin
Experiment: Filaggrin expression in normal human keratinocytes (NHEK), in-situ immunolabelling
Type: cell-based
Conditions: 72 hours incubation; for Mean filaggrin (AU): fluorescence intensity relative to number of cells, control 12261; for Mean filaggrin (AU) / % relative to the control (filaggrin): truffle extracts 4.5·10^−3% by weight of active material, Neohesperidin DHC 0.3 mg/ml, CaCl2 1.5 mM; for increase of filaggrin protein expression relative to the control: same concentrations as in the table, change versus control; for % relative to the control (filaggrin): control = 100
Excerpt: The in vitro effect of the combination of neohesperidin dihydrochalcone (neohesperidin DHC) and an extract of black (Périgord) truffle (Tuber melanosporum) and/or an extract of white (summer) truffle (Tuber aestivum) on keratinocyte differentiation is studied. The expression and the location of the marker of filaggrin differentiation are especially studied in keratinocytes in culture which thus makes it possible to evaluate the ability of these combinations to increase the differentiation of these cells. The culture medium is: Keratinocyte-SFM supplemented with: • 0.25 ng/ml Epidermal Growth Factor (EGF); • 25 μg/ml pituitary extract (PE); • 25 μg/ml Gentamicin; The test medium is Keratinocyte-SFM supplemented with 25 μg/ml Gentamicin. The keratinocytes were seeded into 96-well plates and cultured in culture medium for 168 hours with renewal of the culture medium after 24 and 96 hours of incubation. […] All the experimental conditions were carried out in n=3, except the control condition which was carried out in n=6. After incubation, the medium was eliminated and the cells were rinsed, fixed and permeabilized. The cells were then labelled with the primary antibody (see Table A) directed against the protein of interest (filaggrin). […] At the same time, the nuclei of the cells were stained with Hoechst 33258 (bisbenzimide). [table] The image acquisition was carried out with an INCellAnalyzer™ 1000 (GE Healthcare) high-resolution imaging system. For each well, 10 digitized images were captured for each immunolabelling (×20 objective).

SMILES	Mean filaggrin (AU)	increase of filaggrin protein expression relative to the control	% relative to the control (filaggrin)
[Ca+2].[Cl-].[Cl-] [CaCl2, calcium chloride]	74795 AU	+510%	610%
COc1ccc(CCC(=O)c2c(O)cc(O[C@@H]3O[C@H](CO)[C@@H](O)[C@H](O)[C@H]3O[C@@H]3O[C@@H](C)[C@H](O)[C@@H](O)[C@H]3O)cc2O)cc1O [Neohesperidin DHC, 1-(4-((2-O-[6-Deoxy-α-L-mannopyranosyl]-β-D-glucopyranosyl)oxy)-2,6-dihydroxyphenyl)-3-[3-hydroxy-4-methoxyphenyl]-1-propanone]	18840 AU	+54%	154%
